What all share (format): biochemical
One assay addresses plasma kallikrein (Homo sapiens, UniProt P03952). Nature of the assay: Activity of plasma kallikrein measured with the substrates at constant substrate and enzyme concentrations. The settings on record: split product. The protocol: (§1) HCl, were used for the quantitative determination of various enzymes in blood plasma. The determination was carried out by taking advantage of the fact that the split product NH2 -R^2 formed by enzymatic hydrolysis of the substrate has a UV spectrum which differs from that of the substrate and is shifted toward higher wave lengths. Thus, N^α-Bz-Pro-Phe-Arg-pNA^.
(§2) The degree of the enzymatic hydrolysis of the substrate, which is proportional to the quantity of p-nitroaniline formed, can be easily determined by spectrophotometric measurement at 405 nm. […] The conditions are practically the same for the other substrates carrying a p-nitroanilino group as a chromogenic group. The spectrophotometric measurement was, therefore, carried out in all cases at 405 nm.

The next assay concerns the target plasmin (Homo sapiens, UniProt P00747). Nature of the assay: Activity of human plasmin measured with the substrates at constant substrate and enzyme concentrations. The settings on record: split product. The protocol: as §1, §2
In a further assay the target is T1, trypsin (Bos taurus, UniProt P00760).
T1 sequence (P00760 24-246): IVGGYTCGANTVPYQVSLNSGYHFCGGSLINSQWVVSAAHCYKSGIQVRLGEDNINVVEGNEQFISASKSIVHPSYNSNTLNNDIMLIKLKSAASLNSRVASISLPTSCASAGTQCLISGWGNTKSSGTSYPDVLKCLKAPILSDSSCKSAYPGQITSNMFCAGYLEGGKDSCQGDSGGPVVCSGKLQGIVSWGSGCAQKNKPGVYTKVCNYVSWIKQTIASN
Nature of the assay: Splitting by trypsin with liberation of pNA. The protocol:
In a 250 ml three-necked flask 16.0 g (47 mmoles) of Cbo-Arg-OH.HCl, dried over P2 O5 in vacuo, were dissolved in 90 ml of absolute HMPTA in a moisture-free atmosphere at 20° C. To the resulting solution there was first added portionwise a solution of 4.74 g (47 mmoles) of Et3 N in 10 ml of HMPTA and then 16.4 g (100 mmoles) of p-nitrophenylisocyanate (100% excess) at room temperature. The reaction mixture was kept at room temperature for 24 hours, whereupon most of the HMPTA was distilled off in vacuo. The residue was extracted several times with 30% AcOH. The residue was discarded. The combined AcOH extracts were further purified by gel filtration on a "Sephadex G-15" column as described in Example 1, paragraph I (e). […] Elementary analysis and calculation from the empirical formula C20 H25 N6 O5 Cl gave the following values: C = 51.29% (51.67%); H = 5.48% (5.42%); N = 17.92% (18.08%); Cl = 7.50% (7.63%).

Where a name gives a salt, the structure may show the parent alone. Non-standard residues stand in square brackets, D forms with d. Residues, ends and D or L forms follow the SMILES beside them. *: point of attachment. Cha = N[C@@H](CC1CCCCC1)C(=O)O; pNA = O=[N+]([O-])c1ccc(N*)cc1; Phg = N[C@H](C(=O)O)c1ccccc1; Tos = Cc1ccc(S(=O)(=O)*)cc1; 4Abz = Nc1ccc(C(=O)O)cc1; βNA = c1ccc2cc(N*)ccc2c1; Cbz = O=C(OCc1ccccc1)*; Bz = O=C(c1ccccc1)*; Ahx = NCCCCCC(=O)O

The text below walks through data of US4016042A, “Substrate for the quantitative determination of enzymes” (Pentapharm A.G., priority 1974, dated 1977).

plasmin, sequence (P00747 581-810 limits assumed): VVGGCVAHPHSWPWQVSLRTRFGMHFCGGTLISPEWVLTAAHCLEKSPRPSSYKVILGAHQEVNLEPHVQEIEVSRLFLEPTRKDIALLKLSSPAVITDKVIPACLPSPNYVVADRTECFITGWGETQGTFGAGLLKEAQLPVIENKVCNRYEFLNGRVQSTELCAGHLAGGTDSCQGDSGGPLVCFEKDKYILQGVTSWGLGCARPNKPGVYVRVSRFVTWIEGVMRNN
plasmin, sequence (P00747 97-580 partner limits assumed): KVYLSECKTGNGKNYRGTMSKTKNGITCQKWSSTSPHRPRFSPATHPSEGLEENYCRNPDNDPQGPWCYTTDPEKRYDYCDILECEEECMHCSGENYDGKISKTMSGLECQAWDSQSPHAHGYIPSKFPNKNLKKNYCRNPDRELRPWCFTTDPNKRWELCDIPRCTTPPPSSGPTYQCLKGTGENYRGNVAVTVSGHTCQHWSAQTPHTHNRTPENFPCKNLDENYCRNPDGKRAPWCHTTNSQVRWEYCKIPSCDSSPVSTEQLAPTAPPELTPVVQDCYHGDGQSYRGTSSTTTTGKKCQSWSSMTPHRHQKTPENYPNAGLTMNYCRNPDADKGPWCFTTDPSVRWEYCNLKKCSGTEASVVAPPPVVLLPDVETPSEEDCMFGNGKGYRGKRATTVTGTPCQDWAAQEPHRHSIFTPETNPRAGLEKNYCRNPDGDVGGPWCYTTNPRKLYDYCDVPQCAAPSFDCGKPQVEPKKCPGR
plasma kallikrein, sequence (P03952 391-638 limits assumed, species assumed): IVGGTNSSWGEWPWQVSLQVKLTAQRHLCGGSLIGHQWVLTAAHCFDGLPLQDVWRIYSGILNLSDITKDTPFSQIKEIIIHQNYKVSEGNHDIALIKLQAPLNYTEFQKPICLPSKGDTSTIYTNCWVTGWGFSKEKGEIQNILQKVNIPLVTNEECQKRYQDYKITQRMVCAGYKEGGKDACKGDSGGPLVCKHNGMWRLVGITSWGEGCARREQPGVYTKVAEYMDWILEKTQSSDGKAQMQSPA
plasma kallikrein, sequence (P03952 20-390 partner limits assumed, species assumed): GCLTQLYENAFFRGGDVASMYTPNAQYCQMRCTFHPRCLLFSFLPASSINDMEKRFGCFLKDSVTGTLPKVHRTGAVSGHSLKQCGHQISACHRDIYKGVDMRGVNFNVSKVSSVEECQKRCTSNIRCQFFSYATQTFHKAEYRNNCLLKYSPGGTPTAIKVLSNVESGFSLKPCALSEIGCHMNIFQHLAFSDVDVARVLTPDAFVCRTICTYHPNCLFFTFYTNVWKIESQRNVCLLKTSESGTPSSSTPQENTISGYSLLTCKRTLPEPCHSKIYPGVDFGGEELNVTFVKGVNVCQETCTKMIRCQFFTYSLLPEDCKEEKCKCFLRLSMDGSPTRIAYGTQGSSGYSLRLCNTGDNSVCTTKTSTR

Consider `N=C(N)NCCC[C@H](NC(=O)[C@H](Cc1ccccc1)NC(=O)[C@@H]1CCCN1)C(=O)Nc1ccc([N+](=O)[O-])cc1` [Substrate II, H-Pro-Phe-Arg-pNA.2HCl] (H-Pro-Phe-Arg-pNA), for which the “Quantity of p-nitroaniline (pNA), β-naphthylamine (2-NA) or 4-methoxy-β-naphthylamine (4-MeO-2-NA) released within 1 minute by 1 BAEE unit of plasma kallikrein” value at plasma kallikrein stood at 28.6 nm. For the same compound, at plasmin, the “Quantity of p-nitroaniline (pNA), β-naphthylamine (2-NA) or 4-methoxy-β-naphthylamine (4-MeO-2-NA) released within 1 minute by one C unit of human plasmin” value (“Quantity of p-nitroaniline … of human plasmin” for short) was 16.2 nm.

In the case of `CC(=O)N1CCC[C@H]1C(=O)N[C@@H](Cc1ccccc1)C(=O)N[C@@H](CCCNC(=N)N)C(=O)Nc1ccc([N+](=O)[O-])cc1` [Substrate III, N^α -Ac-Pro-Phe-Arg-pNA.HCl] (Ac-Pro-Phe-Arg-pNA), on plasma kallikrein, the “Quantity of p-nitroaniline (pNA), β-naphthylamine (2-NA) or 4-methoxy-β-naphthylamine (4-MeO-2-NA) released within 1 minute by 1 BAEE unit of plasma kallikrein” value is recorded as 42.3 nm. Also, at plasmin, the “Quantity of p-nitroaniline … of human plasmin” value was found to be 49.1 nm.

Take `N=C(N)NCCC[C@H](NC(=O)[C@H](Cc1ccccc1)NC(=O)[C@@H]1CCCN1C(=O)C1CCCCC1)C(=O)Nc1ccc([N+](=O)[O-])cc1` [Substrate V, N^α -cyclohexylcarbonyl-Pro-Phe-Arg-pNA.HCl]: the “Quantity of p-nitroaniline (pNA), β-naphthylamine (2-NA) or 4-methoxy-β-naphthylamine (4-MeO-2-NA) released within 1 minute by 1 BAEE unit of plasma kallikrein” value on plasma kallikrein is recorded as 154.7 nm. In addition, the “Quantity of p-nitroaniline … of human plasmin” value at plasmin is listed as 158.0 nm.

As for `Cc1ccc(C(=O)N2CCC[C@H]2C(=O)N[C@@H](Cc2ccccc2)C(=O)N[C@@H](CCCNC(=N)N)C(=O)Nc2ccc([N+](=O)[O-])cc2)cc1` [Substrate VI, N^α -4-Methyl-Bz-Pro-Phe-Arg-pNA.HCl], the “Quantity of p-nitroaniline (pNA), β-naphthylamine (2-NA) or 4-methoxy-β-naphthylamine (4-MeO-2-NA) released within 1 minute by 1 BAEE unit of plasma kallikrein” value on plasma kallikrein amounted to 78.4 nm. Also, the “Quantity of p-nitroaniline … of human plasmin” value at plasmin came to 142.0 nm.

For the compound `N=C(N)NCCC[C@H](NC(=O)[C@H](Cc1ccccc1)NC(=O)[C@@H]1CCCN1C(=O)CCCCCN)C(=O)Nc1ccc([N+](=O)[O-])cc1` [Substrate VIII, N^α -(ω-Aminocaproyl)-Pro-Phe-Arg-pNA.2HCl] (H-[Ahx]PFR-pNA), on plasma kallikrein, the “Quantity of p-nitroaniline (pNA), β-naphthylamine (2-NA) or 4-methoxy-β-naphthylamine (4-MeO-2-NA) released within 1 minute by 1 BAEE unit of plasma kallikrein” value was determined as 59.7 nm. The “Quantity of p-nitroaniline … of human plasmin” value on plasmin is given as 256.0 nm.

Regarding `Cc1ccc(S(=O)(=O)N2CCC[C@H]2C(=O)N[C@@H](Cc2ccccc2)C(=O)N[C@@H](CCCNC(=N)N)C(=O)Nc2ccc([N+](=O)[O-])cc2)cc1` [Substrate X, N^α-Tos-Pro-Phe-Arg-pNA.HCl] (Tos-Pro-Phe-Arg-pNA), the “Quantity of p-nitroaniline (pNA), β-naphthylamine (2-NA) or 4-methoxy-β-naphthylamine (4-MeO-2-NA) released within 1 minute by 1 BAEE unit of plasma kallikrein” value at plasma kallikrein worked out at 88.5 nm. Besides, the “Quantity of p-nitroaniline … of human plasmin” value at plasmin stood at 80.2 nm.

With `N=C(N)NCCC[C@H](NC(=O)[C@H](Cc1ccccc1)NC(=O)[C@@H]1CCCN1C(=O)Cc1ccc(N)cc1)C(=O)Nc1ccc([N+](=O)[O-])cc1` [Substrate XI, N^α-4-Aminophenyl-acetyl-Pro-Phe-Arg-pNA. 2HCl], on plasma kallikrein, the “Quantity of p-nitroaniline (pNA), β-naphthylamine (2-NA) or 4-methoxy-β-naphthylamine (4-MeO-2-NA) released within 1 minute by 1 BAEE unit of plasma kallikrein” value was 72.1 nm. The “Quantity of p-nitroaniline … of human plasmin” value at plasmin was 230.0 nm.

For `N=C(N)NCCC[C@H](NC(=O)[C@H](Cc1ccccc1)NC(=O)[C@@H]1CCCN1C(=O)c1ccc(N)cc1)C(=O)Nc1ccc([N+](=O)[O-])cc1` [Substrate XII, N^α-4-Aminobenzoyl-Pro-Phe-Arg-pNA. 2HCl] (H-[4Abz]PFR-pNA), the “Quantity of p-nitroaniline (pNA), β-naphthylamine (2-NA) or 4-methoxy-β-naphthylamine (4-MeO-2-NA) released within 1 minute by 1 BAEE unit of plasma kallikrein” value at plasma kallikrein is on record as 49.2 nm. Besides, the “Quantity of p-nitroaniline … of human plasmin” value on plasmin was found to be 196.0 nm.

With `N=C(N)NCCC[C@H](NC(=O)[C@H](Cc1ccccc1)NC(=O)[C@@H]1CCCN1C(=O)OCc1ccccc1)C(=O)Nc1ccc([N+](=O)[O-])cc1` [Substrate XIII, N^α-Cbo-Pro-Phe-Arg-pNA.HCl] (Cbz-Pro-Phe-Arg-pNA), the “Quantity of p-nitroaniline (pNA), β-naphthylamine (2-NA) or 4-methoxy-β-naphthylamine (4-MeO-2-NA) released within 1 minute by 1 BAEE unit of plasma kallikrein” value at plasma kallikrein came out at 109.9 nm. Also, the “Quantity of p-nitroaniline … of human plasmin” value on plasmin was 176.1 nm.

For the compound `N=C(N)NCCC[C@H](NC(=O)[C@H](CC1CCCCC1)NC(=O)[C@@H]1CCCN1C(=O)c1ccccc1)C(=O)Nc1ccc([N+](=O)[O-])cc1` [Substrate XIV, N^α-Bz-Pro-CHA-Arg-pNA.HCl] (Bz-Pro-[Cha]-Arg-pNA), the “Quantity of p-nitroaniline (pNA), β-naphthylamine (2-NA) or 4-methoxy-β-naphthylamine (4-MeO-2-NA) released within 1 minute by 1 BAEE unit of plasma kallikrein” value at plasma kallikrein was 64.5 nm. Further, the “Quantity of p-nitroaniline … of human plasmin” value on plasmin is on record as 116.0 nm.

As for `N=C(N)NCCC[C@H](NC(=O)[C@H](Cc1ccc(O)cc1)NC(=O)[C@@H]1CCCN1C(=O)c1ccccc1)C(=O)Nc1ccc([N+](=O)[O-])cc1` [Substrate XV, N^α-Bz-Pro-Tyr-Arg-pNA.HCl] (Bz-Pro-Tyr-Arg-pNA), on plasma kallikrein, the “Quantity of p-nitroaniline (pNA), β-naphthylamine (2-NA) or 4-methoxy-β-naphthylamine (4-MeO-2-NA) released within 1 minute by 1 BAEE unit of plasma kallikrein” value is on record as 71.0 nm. For the same compound, the “Quantity of p-nitroaniline … of human plasmin” value at plasmin was 73.8 nm.

In the case of `N=C(N)NCCC[C@H](NC(=O)[C@@H](NC(=O)[C@@H]1CCCN1C(=O)c1ccccc1)c1ccccc1)C(=O)Nc1ccc([N+](=O)[O-])cc1` [Substrate XVI, N^α-Bz-Pro-Ph.Gly-Arg-pNA.HCl] (Bz-Pro-[Phg]-Arg-pNA), at plasma kallikrein, the “Quantity of p-nitroaniline (pNA), β-naphthylamine (2-NA) or 4-methoxy-β-naphthylamine (4-MeO-2-NA) released within 1 minute by 1 BAEE unit of plasma kallikrein” value was found to be 9.1 nm. Further, the “Quantity of p-nitroaniline … of human plasmin” value on plasmin is 16.2 nm.

On to `N=C(N)NCCC[C@H](NC(=O)[C@H](Cc1ccccc1)NC(=O)[C@@H]1CCCN1C(=O)c1ccccc1)C(=O)Nc1ccc2ccccc2c1` [Substrate XVII, N^α-Bz-Pro-Phe-Arg-2-NA^. HCl] (Bz-Pro-Phe-Arg-βNA), for which, on plasma kallikrein, the “Quantity of p-nitroaniline (pNA), β-naphthylamine (2-NA) or 4-methoxy-β-naphthylamine (4-MeO-2-NA) released within 1 minute by 1 BAEE unit of plasma kallikrein” value stood at 44.1 nm. Also, the “Quantity of p-nitroaniline … of human plasmin” value on plasmin worked out at 95.4 nm.

For the compound `COc1cc(NC(=O)[C@H](CCCNC(=N)N)NC(=O)[C@H](Cc2ccccc2)NC(=O)[C@@H]2CCCN2C(=O)c2ccccc2)cc2ccccc12` [Substrate XVIII, N^α-Bz-Pro-Phe-Arg-4-MeO-2-NA^. HCl], the “Quantity of p-nitroaniline (pNA), β-naphthylamine (2-NA) or 4-methoxy-β-naphthylamine (4-MeO-2-NA) released within 1 minute by 1 BAEE unit of plasma kallikrein” value on plasma kallikrein was determined as 39.8 nm. On plasmin, the “Quantity of p-nitroaniline … of human plasmin” value amounted to 79.7 nm.

Regarding `N=C(N)NCCC[C@H](NC(=O)OCc1ccccc1)C(=O)Nc1ccc([N+](=O)[O-])cc1` [XIIIa, Cbo-Arg-pNA.HCl], on trypsin, the splitting by trypsin entry is “split by trypsin with liberation of pNA”.

In the case of “N^α -4-Aminomethyl-cyclohexylcarbonyl-Pro-Phe-Arg-pNA.2HCl [Substrate IX]”, at plasma kallikrein, the “Quantity of p-nitroaniline (pNA), β-naphthylamine (2-NA) or 4-methoxy-β-naphthylamine (4-MeO-2-NA) released within 1 minute by 1 BAEE unit of plasma kallikrein” value is listed as 65.1 nm. In addition, the “Quantity of p-nitroaniline … of human plasmin” value on plasmin amounted to 600.0 nm.

Consider “N^α -Caproyl-Pro-Phe-Arg-pNA.HCl [Substrate IV]”, for which the “Quantity of p-nitroaniline (pNA), β-naphthylamine (2-NA) or 4-methoxy-β-naphthylamine (4-MeO-2-NA) released within 1 minute by 1 BAEE unit of plasma kallikrein” value at plasma kallikrein turned out to be 108.3 nm. Further, the “Quantity of p-nitroaniline … of human plasmin” value on plasmin came out at 100.0 nm.
